Reference: ChEMBL document CHEMBL3112480, “γ-Alkylidene-γ-lactones and isobutylpyrrol-2(5H)-ones analogues to rubrolides as inhibitors of biofilm formation by gram-positive and gram-negative bacteria” (Bioorg Med Chem Lett, 2014)
Values after ≈ are worked out from the molar mass of the structure shown.

Key:
[1] = system: Staphylococcus epidermidis; assay: Antibacterial activity against Staphylococcus epidermidis ATCC 35547 assessed as effect on planktonic growth at 0.68 ug/ml after 20 hrs relative to control; format: functional
Pseudomonas aeruginosa [2] = assay: Antibacterial activity against Pseudomonas aeruginosa ATCC 27853 assessed as effect on planktonic growth at 87.5 ug/ml after 20 hrs relative to control; format: functional
Staphylococcus aureus [3] = assay: Antibacterial activity against Staphylococcus aureus ATCC 25923 assessed as effect on planktonic growth at 21.9 ug/ml after 20 hrs relative to control; format: functional
Streptococcus mutans [4] = assay: Antibacterial activity against Streptococcus mutans ATCC 25175 assessed as effect on planktonic growth at 87.5 ug/ml after 20 hrs relative to control; format: functional
Pseudomonas aeruginosa [5] = assay: Antibacterial activity against Pseudomonas aeruginosa ATCC 27853 assessed as inhibition of biofilm formation after 20 hrs by crystal-violet staining method; format: functional, organism-based; details: for IC50: ATCC 27853, 20 h
Streptococcus mutans [6] = assay: Antibacterial activity against Streptococcus mutans ATCC 25175 assessed as effect on planktonic growth at 0.34 ug/ml after 20 hrs relative to control; format: functional
Staphylococcus aureus [7] = assay: Antibacterial activity against Staphylococcus aureus ATCC 25923 assessed as effect on planktonic growth at 0.17 ug/ml after 20 hrs relative to control; format: functional
[8] = system: Staphylococcus epidermidis; assay: Antibacterial activity against Staphylococcus epidermidis ATCC 35547 assessed as effect on planktonic growth at 1.37 ug/ml after 20 hrs relative to control; format: functional
Pseudomonas aeruginosa [9] = assay: Antibacterial activity against Pseudomonas aeruginosa ATCC 27853 assessed as effect on planktonic growth at 0.17 ug/ml after 20 hrs relative to control; format: functional
Pseudomonas aeruginosa [10] = assay: Antibacterial activity against Pseudomonas aeruginosa ATCC 27853 assessed as effect on planktonic growth at 0.34 ug/ml after 20 hrs relative to control; format: functional
[11] = system: Staphylococcus epidermidis; assay: Antibacterial activity against Staphylococcus epidermidis ATCC 35547 assessed as effect on planktonic growth at 87.5 ug/ml after 20 hrs relative to control; format: functional
Staphylococcus aureus [12] = assay: Antibacterial activity against Staphylococcus aureus ATCC 25923 assessed as effect on planktonic growth at 10.9 ug/ml after 20 hrs relative to control; format: functional
Staphylococcus aureus [13] = assay: Antibacterial activity against Staphylococcus aureus ATCC 25923 assessed as inhibition of biofilm formation at 44 ug/ml after 20 hrs by crystal-violet staining method relative to control; format: functional; details: ATCC 25923, 20 h
[14] = system: Staphylococcus epidermidis; assay: Antibacterial activity against Staphylococcus epidermidis ATCC 35547 assessed as effect on planktonic growth at 21.9 ug/ml after 20 hrs relative to control; format: functional
Staphylococcus aureus [15] = assay: Antibacterial activity against Staphylococcus aureus ATCC 25923 assessed as effect on planktonic growth at 5.5 ug/ml after 20 hrs relative to control; format: functional
Pseudomonas aeruginosa [16] = assay: Antibacterial activity against Pseudomonas aeruginosa ATCC 27853 assessed as effect on planktonic growth at 21.9 ug/ml after 20 hrs relative to control; format: functional
Streptococcus mutans [17] = assay: Antibacterial activity against Streptococcus mutans ATCC 25175 assessed as effect on planktonic growth at 0.17 ug/ml after 20 hrs relative to control; format: functional
Staphylococcus aureus [18] = assay: Antibacterial activity against Staphylococcus aureus ATCC 25923 assessed as inhibition of biofilm formation after 20 hrs by crystal-violet staining method; format: functional, organism-based; details: ATCC 25923, 20 h
Pseudomonas aeruginosa [19] = assay: Antibacterial activity against Pseudomonas aeruginosa ATCC 27853 assessed as effect on planktonic growth at 2.73 ug/ml after 20 hrs relative to control; format: functional
Streptococcus mutans [20] = assay: Antibacterial activity against Streptococcus mutans ATCC 25175 assessed as effect on planktonic growth at 0.68 ug/ml after 20 hrs relative to control; format: functional
Streptococcus mutans [21] = assay: Antibacterial activity against Streptococcus mutans ATCC 25175 assessed as effect on planktonic growth at 10.9 ug/ml after 20 hrs relative to control; format: functional
Pseudomonas aeruginosa [22] = assay: Antibacterial activity against Pseudomonas aeruginosa ATCC 27853 assessed as effect on planktonic growth at 43.8 ug/ml after 20 hrs relative to control; format: functional
Staphylococcus aureus [23] = assay: Antibacterial activity against Staphylococcus aureus ATCC 25923 assessed as effect on planktonic growth at 2.73 ug/ml after 20 hrs relative to control; format: functional
[24] = system: Staphylococcus epidermidis; assay: Antibacterial activity against Staphylococcus epidermidis ATCC 35547 assessed as effect on planktonic growth at 5.5 ug/ml after 20 hrs relative to control; format: functional
[25] = system: Staphylococcus epidermidis; assay: Antibacterial activity against Staphylococcus epidermidis ATCC 35547 assessed as effect on planktonic growth at 43.8 ug/ml after 20 hrs relative to control; format: functional
Pseudomonas aeruginosa [26] = assay: Antibacterial activity against Pseudomonas aeruginosa ATCC 27853 assessed as effect on planktonic growth at 0.68 ug/ml after 20 hrs relative to control; format: functional
Streptococcus mutans [27] = assay: Antibacterial activity against Streptococcus mutans ATCC 25175 assessed as effect on planktonic growth at 43.8 ug/ml after 20 hrs relative to control; format: functional
[28] = system: Staphylococcus epidermidis; assay: Antibacterial activity against Staphylococcus epidermidis ATCC 35547 assessed as inhibition of biofilm formation after 20 hrs by crystal-violet staining method; format: functional, organism-based; details: for IC50: ATCC 35547, 20 h
Staphylococcus aureus [29] = assay: Antibacterial activity against Staphylococcus aureus ATCC 25923 assessed as effect on planktonic growth at 0.34 ug/ml after 20 hrs relative to control; format: functional
Staphylococcus aureus [30] = assay: Antibacterial activity against Staphylococcus aureus ATCC 25923 assessed as effect on planktonic growth at 0.68 ug/ml after 20 hrs relative to control; format: functional
[31] = system: Staphylococcus epidermidis; assay: Antibacterial activity against Staphylococcus epidermidis ATCC 35547 assessed as effect on planktonic growth at 0.34 ug/ml after 20 hrs relative to control; format: functional
Staphylococcus aureus [32] = assay: Antibacterial activity against Staphylococcus aureus ATCC 25923 assessed as effect on planktonic growth at 87.5 ug/ml after 20 hrs relative to control; format: functional
Streptococcus mutans [33] = assay: Antibacterial activity against Streptococcus mutans ATCC 25175 assessed as effect on planktonic growth at 2.73 ug/ml after 20 hrs relative to control; format: functional
Staphylococcus aureus [34] = assay: Antibacterial activity against Staphylococcus aureus ATCC 25923 assessed as effect on planktonic growth at 1.37 ug/ml after 20 hrs relative to control; format: functional
[35] = system: Staphylococcus epidermidis; assay: Antibacterial activity against Staphylococcus epidermidis ATCC 35547 assessed as effect on planktonic growth at 0.17 ug/ml after 20 hrs relative to control; format: functional
Pseudomonas aeruginosa [36] = assay: Antibacterial activity against Pseudomonas aeruginosa ATCC 27853 assessed as effect on planktonic growth at 1.37 ug/ml after 20 hrs relative to control; format: functional
[37] = system: Staphylococcus epidermidis; assay: Antibacterial activity against Staphylococcus epidermidis ATCC 35547 assessed as effect on planktonic growth at 2.73 ug/ml after 20 hrs relative to control; format: functional
Pseudomonas aeruginosa [38] = assay: Antibacterial activity against Pseudomonas aeruginosa ATCC 27853 assessed as effect on planktonic growth at 10.9 ug/ml after 20 hrs relative to control; format: functional
Streptococcus mutans [39] = assay: Antibacterial activity against Streptococcus mutans ATCC 25175 assessed as effect on planktonic growth at 1.37 ug/ml after 20 hrs relative to control; format: functional
Streptococcus mutans [40] = assay: Antibacterial activity against Streptococcus mutans ATCC 25175 assessed as effect on planktonic growth at 21.9 ug/ml after 20 hrs relative to control; format: functional
Pseudomonas aeruginosa [41] = assay: Antibacterial activity against Pseudomonas aeruginosa ATCC 27853 assessed as effect on planktonic growth at 5.5 ug/ml after 20 hrs relative to control; format: functional
Staphylococcus aureus [42] = assay: Antibacterial activity against Staphylococcus aureus ATCC 25923 assessed as effect on planktonic growth at 43.8 ug/ml after 20 hrs relative to control; format: functional
Streptococcus mutans [43] = assay: Antibacterial activity against Streptococcus mutans ATCC 25175 assessed as effect on planktonic growth at 5.5 ug/ml after 20 hrs relative to control; format: functional
[44] = system: Staphylococcus epidermidis; assay: Antibacterial activity against Staphylococcus epidermidis ATCC 35547 assessed as effect on planktonic growth at 10.9 ug/ml after 20 hrs relative to control; format: functional

For `COc1ccc(Cl)cc1C1=C(Br)C(=O)N(CC(C)C)C1(O)Cc1ccccc1Br` (stereo unspecified), the Activity [1] was 9.4%, the Activity (Pseudomonas aeruginosa [2]) was 24.8% and the Activity (Staphylococcus aureus [3]) was 4.2%. For the same molecule, the Activity (Streptococcus mutans [4]) was 24.4%, the inhibition (Pseudomonas aeruginosa [5]) was “Dose-dependent effect” and the IC50 (Pseudomonas aeruginosa [5]) was over 87.5 µg/mL. The Activity (Streptococcus mutans [6]) was -13.8%, the Activity (Staphylococcus aureus [7]) was 8.4% and the Activity [8] was 7.8%. It also gave an Activity (Pseudomonas aeruginosa [9]) of -7.2%, an Activity (Pseudomonas aeruginosa [10]) of -9.6% and an Activity [11] of 17.6%. It also gave an Activity (Staphylococcus aureus [12]) of -2.4%, an inhibition at 44 µg/mL (Staphylococcus aureus [13]) of 53.1% and an Activity [14] of 13.2%. It also gave an Activity (Staphylococcus aureus [15]) of -9%, an Activity (Pseudomonas aeruginosa [16]) of -9.2% and an Activity (Streptococcus mutans [17]) of -16.1%. The IC50 (Staphylococcus aureus [18]) was 6.8 µM, the Activity (Pseudomonas aeruginosa [19]) was -13.8% and the Activity (Streptococcus mutans [20]) was -7.7%. It also gave an Activity (Streptococcus mutans [21]) of 9%, an Activity (Pseudomonas aeruginosa [22]) of 5.7% and an Activity (Staphylococcus aureus [23]) of -1.3%. For the same molecule, the Activity [24] was 6.4%, the Activity [25] was 28.8% and the Activity (Pseudomonas aeruginosa [26]) was -6.4%. For the same molecule, the Activity (Streptococcus mutans [27]) was 24.4%, the inhibition [28] was “Dose-dependent effect” and the IC50 [28] was 83.4 µg/mL (≈ 153 µM). For the same molecule, the Activity (Staphylococcus aureus [29]) was 6.2%, the Activity (Staphylococcus aureus [30]) was 3.7% and the Activity [31] was 2.6%. It also gave an Activity (Staphylococcus aureus [32]) of 14.3%, an Activity (Streptococcus mutans [33]) of 1.6% and an Activity (Staphylococcus aureus [34]) of 5.9%. The Activity [35] was 9.4%, the Activity (Pseudomonas aeruginosa [36]) was -5.6% and the Activity [37] was 21.5%. For the same molecule, the Activity (Pseudomonas aeruginosa [38]) was -14.9%, the Activity (Streptococcus mutans [39]) was 3.5% and the Activity (Streptococcus mutans [40]) was 15.4%. It also gave an Activity (Pseudomonas aeruginosa [41]) of -13.5%, an Activity (Staphylococcus aureus [42]) of 12.8% and an Activity (Streptococcus mutans [43]) of 9%. For the same molecule, the Activity [44] was 4.2%.

Molecule `COc1ccc(C)cc1C1=C(Br)C(=O)N(CC(C)C)/C1=C/c1ccccc1Cl` has an Activity [1] of -6.1%, an Activity (Pseudomonas aeruginosa [2]) of -4.3% and an Activity (Staphylococcus aureus [3]) of -13.2%. For the same molecule, the Activity (Streptococcus mutans [4]) was 20.1%, the inhibition (Pseudomonas aeruginosa [5]) was “Dose-dependent effect” and the IC50 (Pseudomonas aeruginosa [5]) was 1.4 µg/mL (≈ 3.04 µM). The Activity (Streptococcus mutans [6]) was 18.1%, the Activity (Staphylococcus aureus [7]) was -6.6% and the Activity [8] was -2.3%. It also gave an Activity (Pseudomonas aeruginosa [9]) of 1.2%, an Activity (Pseudomonas aeruginosa [10]) of 0.6% and an Activity [11] of 23.5%. For the same molecule, the Activity (Staphylococcus aureus [12]) was -11.2%, the inhibition at 44 µg/mL (Staphylococcus aureus [13]) was 34% and the Activity [14] was 5.9%. The Activity (Staphylococcus aureus [15]) was -9.4%, the Activity (Pseudomonas aeruginosa [16]) was -13.2% and the Activity (Streptococcus mutans [17]) was 11.9%. It also gave an Activity (Pseudomonas aeruginosa [19]) of -18.8%, an Activity (Streptococcus mutans [20]) of 9% and an Activity (Streptococcus mutans [21]) of 18.6%. For the same molecule, the Activity (Pseudomonas aeruginosa [22]) was -7.7%, the Activity (Staphylococcus aureus [23]) was -10.4% and the Activity [24] was -1%. The Activity [25] was 26.9%, the Activity (Pseudomonas aeruginosa [26]) was -2.7% and the Activity (Streptococcus mutans [27]) was 20.1%. For the same molecule, the inhibition [28] was “Dose-dependent effect”, the IC50 [28] was over 87.5 µg/mL and the Activity (Staphylococcus aureus [29]) was -6.6%. For the same molecule, the Activity (Staphylococcus aureus [30]) was -3.6%, the Activity [31] was 3.6% and the Activity (Staphylococcus aureus [32]) was 20.1%. The Activity (Streptococcus mutans [33]) was 24.3%, the Activity (Staphylococcus aureus [34]) was -4.6% and the Activity [35] was -2.9%. It also gave an Activity (Pseudomonas aeruginosa [36]) of -10%, an Activity [37] of 0.4% and an Activity (Pseudomonas aeruginosa [38]) of -15%. It also gave an Activity (Streptococcus mutans [39]) of 20.6%, an Activity (Streptococcus mutans [40]) of 13.8% and an Activity (Pseudomonas aeruginosa [41]) of -17.8%. The Activity (Staphylococcus aureus [42]) was 4.6%, the Activity (Streptococcus mutans [43]) was 25.4% and the Activity [44] was 6%.
